Legend:
[1] = system: cancer cell proliferation; settings: cited from earlier work
[2] = biological target: T1, eEF1A ternary complex on human ribosomes (Homo sapiens, UniProt P68104); test: smFRET drug chase experiments; assay type: binding
T1 sequence (P68104 1-462): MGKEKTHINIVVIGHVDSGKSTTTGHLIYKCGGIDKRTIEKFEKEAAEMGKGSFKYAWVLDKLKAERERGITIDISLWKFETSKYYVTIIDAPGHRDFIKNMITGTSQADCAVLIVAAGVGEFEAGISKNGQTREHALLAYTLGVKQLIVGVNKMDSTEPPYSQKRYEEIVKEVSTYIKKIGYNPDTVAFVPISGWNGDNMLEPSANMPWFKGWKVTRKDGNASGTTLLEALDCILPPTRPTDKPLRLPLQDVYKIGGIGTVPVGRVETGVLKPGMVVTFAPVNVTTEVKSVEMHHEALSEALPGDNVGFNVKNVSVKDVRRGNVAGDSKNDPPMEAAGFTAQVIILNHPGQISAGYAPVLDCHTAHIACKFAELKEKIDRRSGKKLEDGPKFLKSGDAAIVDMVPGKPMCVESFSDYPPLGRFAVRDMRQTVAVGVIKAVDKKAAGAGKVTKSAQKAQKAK

[3] = system: Eμ-Myc/+ lymphoma cells; test: Eμ-Myc lymphoma allograft model; settings: 1.5 or 2.0 mg/kg, intraperitoneal, 3 times per week
[4] = biological target: T1, eEF1A ternary complex on human ribosomes; test: smFRET ternary complex real-time delivery experiment; assay type: biochemical; settings: 10 μM drug delivered with ternary complex, 25 °C
[5] = mouse, in vivo, ip, 2 mg/kg
[6] = system: HCT116 cells; test: OPP incorporation assay; settings: HCT116, 24 h continuous treatment, then 1-h OPP pulse
[7] = system: HCT116 cells; settings: HCT116, 72 h, alamarBlue
[8] = biological target: eukaryotic elongation factor-1α (eEF1A) (UniProt P68104); test: single-molecule FRET chase
[9] = from rebinding constants, chase with 0-10 μM drug

C=C[C@H](C)C[C@@H]1NC(=O)[C@H]([C@H](O)C(C)C)N(C)C(=O)[C@H](C)N(C)C(=O)[C@@H]([C@@H](C)CC)NC(=O)[C@@H]([C@H](O)C(C)C)NC(=O)[C@H]2CCCCN2C(=O)[C@H](C)N(C)C1=O [A3]
concentration inhibiting cancer cell proliferation [1]: low nanomolar concentrations

C=C[C@H](C)C[C@@H]1NC(=O)[C@H]([C@H](O)C(C)C)N(C)C(=O)[C@H](C)N(C)C(=O)[C@@H]([C@@H](C)CC)NC(=O)[C@@H]([C@H](O)C(C)C)NC(=O)[C@H]2CCCCN2C(=O)[C@H](C)N(C)C1=O [SR-A3]
rebinding to stalled eEF1A-ribosome complex relative to SS-A3 [2, 9]: twice as fast
rebinding to stalled eEF1A-ribosome complex relative to ternatin-4 [2, 9]: four times as fast
residence time longer than ternatin-4 or SS-A3 ([2]; washout into drug-free buffer): about 60%
body weight [3]: no significant body weight loss
tolerability ([3]; both dose groups): well tolerated
survival of tumor-bearing mice ([3]; n = 5 per group): dramatically prolonged survival
aa-tRNA accommodation [4]: strongly inhibited
AUCinf, fold higher than ternatin-4 [5]: ~ 2.1 fold
Cmax, fold higher than ternatin-4 [5]: ~ 1.7 fold

C=C[C@H](C)C[C@@H]1NC(=O)[C@H]([C@@H](O)C(C)C)N(C)C(=O)[C@H](C)N(C)C(=O)[C@@H]([C@@H](C)CC)NC(=O)[C@@H]([C@H](O)C(C)C)NC(=O)[C@H]2CCCCN2C(=O)[C@H](C)N(C)C1=O [SS-A3]
potency in protein synthesis inhibition compared with SR-A3 [6]: slightly less potent
aa-tRNA accommodation [4]: strongly inhibited
fold less potent than SR-A3 (HCT116 proliferation IC50) [7]: ~ 3 fold

ternatin-4 (peptide)
residence time [8]: 56 s

ternatin-4 [reference compound]
potency in protein synthesis inhibition compared with SR-A3 [6]: behaved identically
aa-tRNA accommodation [4]: strongly inhibited

Source: publication PMC10018702 (Nature chemistry, 2022)
